Test results reported in the NIST ThermoML archive (doi:10.1021/je901020a).
Where “and” joins values, the source holds several entries; their conditions need not be identical. Equal entries are not always repeated. Numbers after ± are expanded uncertainties.

Key:
[1] = refractive index (Na D-line) (dimensionless); xn = mol fraction of the nth substance listed; conditions: 101 kPa, Liquid, Standard Abbe refractometry
[2] = xn = mol fraction of the nth substance listed; conditions: 101 kPa, Liquid; for speed of sound: Pulse-echo method
[3] = 101 kPa, Liquid; for speed of sound: Pulse-echo method
[4] = refractive index (Na D-line) (dimensionless); conditions: 101.33 kPa, Liquid, Standard Abbe refractometry

C1CCCC1 [cyclopentane] + Cc1cc(C)cc(C)c1
Conditions | mass density, [2] [kg/m3] | refractive index, [1] | speed of sound, [2] [m/s]
298.15 K, x1 = 0.0383 | 857.8 ± 0.5 | 1.49446 ± 0.0011 | 1332 ± 2
298.15 K, x1 = 0.0884 | 853.3 ± 0.5 | 1.49105 ± 0.0011 | 1325 ± 2
298.15 K, x1 = 0.1869 | 843.9 ± 0.5 | 1.48398 ± 0.0011 | 1311 ± 2
298.15 K, x1 = 0.2531 | 837.5 ± 0.5 | 1.47925 ± 0.0011 | 1302 ± 2
298.15 K, x1 = 0.3849 | 823.5 ± 0.5 | 1.46883 ± 0.0011 | 1283 ± 2
298.15 K, x1 = 0.4879 | 811.9 ± 0.6 | 1.4596 ± 0.0011 | 1269 ± 2
298.15 K, x1 = 0.5891 | 799.5 ± 0.6 | 1.45045 ± 0.0011 | 1255 ± 2
298.15 K, x1 = 0.6926 | 786 ± 0.6 | 1.4403 ± 0.0011 | 1241 ± 2
298.15 K, x1 = 0.7807 | 774 ± 0.6 | 1.43111 ± 0.0011 | 1229 ± 2
298.15 K, x1 = 0.8901 | 757.9 ± 0.6 | 1.41728 ± 0.0011 | 1216 ± 2
298.15 K, x1 = 0.9487 | 748.6 ± 0.6 | 1.40994 ± 0.0011 | 1210 ± 2
298.15 K, x1 = 1 | 740 ± 0.6 | 1.40292 ± 0.001 | 1204 ± 2
313.15 K, x1 = 0.0414 | 845.1 ± 0.5 | 1.48675 ± 0.001 | 1271 ± 2
313.15 K, x1 = 0.0948 | 840.2 ± 0.5 | 1.48324 ± 0.001 | 1263 ± 2
313.15 K, x1 = 0.1986 | 830.2 ± 0.5 | 1.47585 ± 0.00097 | 1248 ± 2
313.15 K, x1 = 0.2985 | 819.9 ± 0.5 | 1.46786 ± 0.00094 | 1232 ± 2
313.15 K, x1 = 0.4078 | 807.7 ± 0.6 | 1.45906 ± 0.00091 | 1216 ± 2
313.15 K, x1 = 0.4703 | 800.3 ± 0.6 | 1.45335 ± 0.00087 | 1206 ± 2
313.15 K, x1 = 0.6043 | 783.5 ± 0.6 | 1.4411 ± 0.00088 | 1186 ± 2
313.15 K, x1 = 0.7006 | 770.4 ± 0.6 | 1.4312 ± 0.001 | 1171 ± 2
313.15 K, x1 = 0.8048 | 755.4 ± 0.6 | 1.42003 ± 0.0015 | 1155 ± 2
313.15 K, x1 = 0.9074 | 739.7 ± 0.6 | 1.40648 ± 0.002 | 1140 ± 2
313.15 K, x1 = 0.9595 | 731.4 ± 0.7 | 1.40014 ± 0.0019 | 1134 ± 2
313.15 K, x1 = 1 | 725 ± 0.7 | 1.39456 ± 0.001 | 1130 ± 2

C1CCCCC1 [cyclohexane]
Conditions | mass density, [3] | refractive index, [4] | speed of sound, [3] [m/s]
298.15 K | 773.9 ± 0.5 kg/m3 | 1.4236 ± 0.00064 | 1255 ± 2
313.15 K | 759.6 ± 0.5 kg/m3 and 759.59 ± 0.5 kg/m3 | 1.41516 ± 0.00064 | 1182 ± 2

Cc1cccc(C)c1 [1,3-dimethylbenzene]
Conditions | mass density, [3] [kg/m3] | refractive index, [4] | speed of sound, [3] [m/s]
298.15 K | 859.8 ± 0.5 | 1.49466 ± 0.001 | 1321 ± 2
313.15 K | 846.9 ± 0.5 | 1.48653 ± 0.001 | 1259 ± 2
